Experimental data taken from paper PMC6321567 (2018).

Tested on: 22HT (DNA, G4) AGGGTTAGGGTTAGGGTTAGGG
Assay: CD melting at 293 nm
Details: 10 mM Tris-HCl pH 7.2, 3 equiv. ligand

## CC[n+]1c(/C=C/c2ccc3c(c2)c2ccccc2n3CCCCn2ccnc2)sc2ccccc21
100 mM KCl, 2 µM DNA, SD of Tm ±0.5 °C
  ΔTm: 4.3 °C
100 mM NaCl, 2 µM DNA, SD of Tm ±0.5 °C
  ΔTm: 4.5 °C
No added Na+ or K+, ligand-induced G4 folding, Tm without ligand <14 °C
  ΔTm: > 30.6 °C
